Tests used:
Assay type in all cases: in vivo
[1] = tested on: Monocotyledonous and dicotyledonous weed seeds and main crop seeds; test: Post-emergence test experiment (Table 3, 1000 g a.i./ha); conditions: 3 weeks in greenhouse, fresh weight inhibition
Method: (§1) The above described growth inhibition rate is fresh weight inhibition rate.
(§2) Post-emergence test experiment: Monocotyledonous and dicotyledonous weed seeds and main crop seeds (i. e. wheat, corn, rice, soybean, cotton, oilseed, millet and sorghum.) were put into a plastic pot loaded with soil. Then covered with 0.5-2 cm soil, the seeds were allowed to grow in good greenhouse environment. The test plants were treated at 2-3 leaf stage 2 weeks after sowing. The test compounds of the invention were dissolved with acetone respectively, then added with tween-80, and using 1.5 liters per hectare of an emulsible concentrate of methyl oleate as a synergist, and diluted by certain amount of water to certain concentration. The solution was sprayed to the plants with a sprayer. Then the plants were cultured for 3 weeks in the greenhouse, and the experiment result of weed controlling effect was listed in tables 3-4.

Cyperus iria = test: Post-emergence test experiment, weed control; conditions: post-emergence spray, 3 weeks in greenhouse; for Activity level (fresh weight growth inhibition rate), Cyperus iria: 600 g a.i./ha plus water 450 kg/ha
Method: as §1, §2

Indica rice = test: Post-emergence test experiment, crop selectivity; conditions: post-emergence spray, 3 weeks in greenhouse
Method: as §1, §2

Japonica rice = test: Post-emergence test experiment, crop selectivity; conditions: for Activity level (fresh weight growth inhibition rate), Japonica rice: post-emergence spray, 3 weeks in greenhouse
Method: as §1, §2

[2] = 600 g a.i./ha plus water 450 kg/ha

In the case of `CC=COc1ccc(C(=NOC(=O)C(C)Oc2nc(F)c(Cl)c(N)c2Cl)C(=O)OCC)cc1` (stereo not shown) [Compound 92], the “Activity level (growth inhibition rate) Digitaria sanguinalis” value [1] is reported as 5 (Level 5: the growth inhibition rate is greater than 85%), the “Activity level (growth inhibition rate) Echinochloa crusgalli” value [1] is reported as 5 (Level 5: the growth inhibition rate is greater than 85%) and the “Activity level (growth inhibition rate) Galium spurium” value [1] is reported as 5 (Level 5: the growth inhibition rate is greater than 85%). The “Activity level (growth inhibition rate) Leptochloa chinensis” value [1] was 5 (Level 5: the growth inhibition rate is greater than 85%), the “Activity level (growth inhibition rate) Monochoria Vaginalis” value [1] was 5 (Level 5: the growth inhibition rate is greater than 85%) and the “Activity level (growth inhibition rate) Murdannia triquetra” value [1] was 5 (Level 5: the growth inhibition rate is greater than 85%). The “Activity level (growth inhibition rate) Setaria viridis” value [1] was 5 (Level 5: the growth inhibition rate is greater than 85%), the “Activity level (fresh weight growth inhibition rate), Cyperus iria” value (Cyperus iria) was 5 (Level 5: the growth inhibition rate is greater than 85%) and the “Activity level (fresh weight growth inhibition rate), Indica rice” value (Indica rice; [2]) was 0 (Level 0: the growth inhibition rate is less than 5%). For the same molecule, the “Activity level (fresh weight growth inhibition rate), Japonica rice” value (Japonica rice; [2]) was 0 (Level 0: the growth inhibition rate is less than 5%).
For `CC(Oc1nc(F)c(Cl)c(N)c1Cl)C(=O)ON=C(C(=O)NCc1ccco1)c1ccccc1` (stereo not shown) [Compound 104], the “Activity level (growth inhibition rate) Digitaria sanguinalis” value [1] was 5 (Level 5: the growth inhibition rate is greater than 85%), the “Activity level (growth inhibition rate) Echinochloa crusgalli” value [1] was 5 (Level 5: the growth inhibition rate is greater than 85%) and the “Activity level (growth inhibition rate) Galium spurium” value [1] was 5 (Level 5: the growth inhibition rate is greater than 85%). The “Activity level (growth inhibition rate) Leptochloa chinensis” value [1] was 5 (Level 5: the growth inhibition rate is greater than 85%), the “Activity level (growth inhibition rate) Monochoria Vaginalis” value [1] was 5 (Level 5: the growth inhibition rate is greater than 85%) and the “Activity level (growth inhibition rate) Murdannia triquetra” value [1] was 5 (Level 5: the growth inhibition rate is greater than 85%). The “Activity level (growth inhibition rate) Setaria viridis” value [1] was 5 (Level 5: the growth inhibition rate is greater than 85%), the “Activity level (fresh weight growth inhibition rate), Cyperus iria” value (Cyperus iria) was 5 (Level 5: the growth inhibition rate is greater than 85%) and the “Activity level (fresh weight growth inhibition rate), Indica rice” value (Indica rice; [2]) was 0 (Level 0: the growth inhibition rate is less than 5%). For the same molecule, the “Activity level (fresh weight growth inhibition rate), Japonica rice” value (Japonica rice; [2]) was 0 (Level 0: the growth inhibition rate is less than 5%).
In the case of `CCCC(Cl)=NOC(=O)C(C)Oc1nc(F)c(Cl)c(N)c1Cl` (stereo not shown) [Compound 75], the “Activity level (growth inhibition rate) Digitaria sanguinalis” value [1] is reported as 5 (Level 5: the growth inhibition rate is greater than 85%), the “Activity level (growth inhibition rate) Echinochloa crusgalli” value [1] is reported as 5 (Level 5: the growth inhibition rate is greater than 85%) and the “Activity level (growth inhibition rate) Galium spurium” value [1] is reported as 5 (Level 5: the growth inhibition rate is greater than 85%). The “Activity level (growth inhibition rate) Leptochloa chinensis” value [1] was 5 (Level 5: the growth inhibition rate is greater than 85%), the “Activity level (growth inhibition rate) Monochoria Vaginalis” value [1] was 5 (Level 5: the growth inhibition rate is greater than 85%) and the “Activity level (growth inhibition rate) Murdannia triquetra” value [1] was 5 (Level 5: the growth inhibition rate is greater than 85%). The “Activity level (growth inhibition rate) Setaria viridis” value [1] was 5 (Level 5: the growth inhibition rate is greater than 85%), the “Activity level (fresh weight growth inhibition rate), Cyperus iria” value (Cyperus iria) was 5 (Level 5: the growth inhibition rate is greater than 85%) and the “Activity level (fresh weight growth inhibition rate), Indica rice” value (Indica rice; [2]) was 0 (Level 0: the growth inhibition rate is less than 5%). For the same molecule, the “Activity level (fresh weight growth inhibition rate), Japonica rice” value (Japonica rice; [2]) was 0 (Level 0: the growth inhibition rate is less than 5%).
In the case of `CC(Oc1nc(F)c(Cl)c(N)c1Cl)C(=O)O` (stereo not shown) [Control compound A, reference compound], the inhibition at 300 g/ha (Cyperus iria; Cyperus iria, 504 h, 300 g a.i./ha, read-out: Activity level (fresh weight growth inhibition rate), Cyperus iria) is reported as 60 to 85%, the “Activity level (fresh weight growth inhibition rate), Cyperus iria” value (Cyperus iria) is reported as 5 (Level 5: the growth inhibition rate is greater than 85%) and the “Activity level (fresh weight growth inhibition rate), Indica rice” value (Indica rice; 300 g a.i./ha) is reported as 3 (Level 3: the growth inhibition rate is equal to or greater than 40% and less than 60%). For the same molecule, the “Activity level (fresh weight growth inhibition rate), Indica rice” value (Indica rice; [2]) was 3 (Level 3: the growth inhibition rate is equal to or greater than 40% and less than 60%), the “Activity level (fresh weight growth inhibition rate), Japonica rice” value (Japonica rice; 300 g a.i./ha) was 2 (Level 2: the growth inhibition rate is equal to or greater than 20% and less than 40%) and the “Activity level (fresh weight growth inhibition rate), Japonica rice” value (Japonica rice; [2]) was 3 (Level 3: the growth inhibition rate is equal to or greater than 40% and less than 60%). The “Selectivity to / inhibition of rice (in words)” value (Japonica rice; post-emergence, regardless of japonica or indica rice) was “great inhibition to rice”.

Reference: patent US12643859B2, “Pyridyl oxycarboxylic acid oxime derivative and preparation method therefor, weeding composition and application thereof” (Qingdao Kingagroot Chemical Compound Co., Ltd., priority 2018, dated 2026)
